Test results published in US20170248616A1, “IN VITRO COMPOSITIONS COMPRISING HUMAN SAMPLE AND AMYLOID TARGETING AGENT” (Amydis Diagnostics, Inc., priority 2014, published 2017).

Biological target: T1, amyloid deposits in hippocampal brain sections (Homo sapiens, UniProt P05067)
T1 construct: from tissue; host or cells: hippocampal brain sections of a mouse model for Alzheimer's disease
Assay: Fluorescence labeling of amyloid deposits in hippocampal brain sections from a mouse model for Alzheimer's disease
Conditions: excitation wavelength 488 nm; fluorescence micrographs
Text: An excitation wavelength of 488 nm was used to excite the fluorophores. FIG. 13. […] An excitation wavelength of 488 nm was used to excite the fluorophores.

T1 sequence (P05067 672-713 limits assumed): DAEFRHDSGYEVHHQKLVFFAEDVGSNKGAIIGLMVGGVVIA

Row | SMILES | fluorescence labeling of amyloid deposits
1 | COCCOCCOCCNC(=O)/C(C#N)=C/c1ccc2cc(N3CCCCC3)ccc2c1 [Compound 1, 2-cyano-N-(2-(2-(2-methoxyethoxy)ethoxy)ethyl)-3-(6-(piperidin-1-yl)naphthalen-2-yl)acrylamide] | fluorescence labeling of amyloid deposits
2 | COCCOCCOCCNS(=O)(=O)/C(C#N)=C/c1ccc2cc(N3CCCCC3)ccc2c1 [Compound 2, 1-cyano-N-(2-(2-(2-methoxyethoxy)ethoxy)ethyl)-2-(6-(piperidin-1-yl)naphthalen-2-yl)ethenesulfonamide] | fluorescence labeling of amyloid deposits
